Earlier results, collected in patent US20070275095A1, “TREATMENT OF INFLAMMATORY, AUTOIMMUNE, OR OTHER DISORDERS, USING AGENTS THAT REDUCE THE SEQUESTERING OF ZINC BY CALPROTECTIN” (priority 2005, published 2007).

Legend:
[1] = system: calprotectin; details: Oyama et al 1997
[2] = system: neutrophil cells; details: Oyama et al 1997
[3] = system: tumor necrosis factor (TNF); details: same literature reports
[4] = system: calprotectin; details: zinc binding not measured directly; apoptosis measured (Yui et al 1998 and 2003, Mikami et al 1999)
[5] = clinical trials reviewed in Kidd 2002, Kern et al 2004, Esch et al 2004, Sturmey 2005

With `CC(C)c1ccc2oc3nc(N)c(C(=O)O)cc3c(=O)c2c1` [amlexanox] as the compound, how does the “binding to calprotectin molecules in neutrophils” value [1] read?
The value was “bind to calprotectin molecules contained in the neutrophils”.

What about the “suppression of calprotectin release by neutrophils” value [2] of the same compound?
The value was “impedes and suppresses the release of calprotectin by the neutrophils”.

With `O=C1N[C@@H]2C(=C[C@H](O)[C@@H](O)[C@H]2O)c2cc3c(c(O)c21)OCO3` [lycoricidinol] as the compound, how does the “inhibition of tumor necrosis factor (TNF)” value [3] read?
Its value is “appear to inhibit”.

What about the “inhibition of zinc binding by calprotectin” value [4] of the same compound?
Its value is “appear to inhibit zinc binding by calprotectin, to some extent”.

For `O[C@H]1[C@H]2c3cc4c(cc3CN3CCC(=C[C@@H]1O)[C@H]23)OCO4` [lycorine], which “inhibition of tumor necrosis factor (TNF)” value [3] is on record?
Its value is “appear to inhibit”.

What about the “inhibition of zinc binding by calprotectin” value [4] of the same compound?
The value was “appear to inhibit zinc binding by calprotectin, to some extent”.

With secretin as the compound, how does the “clinical trial outcome in autism” value [5] read?
The value was “mainly negative results”.
